In patent US9695175B2, “Highly selective c-Met inhibitors as anticancer agents” (Crown Bioscience Inc. (Taiwan), priority 2012, dated 2017):

Tests used:
[1] = molecular target: c-Met kinase (1038-1346AA) (Homo sapiens (Human), UniProt P08581); test: c-Met in vitro kinase assay (Lance Ultra ULight-TK); type: biochemical; conditions: c-Met kinase 12.5 nM, ATP 2.5 uM, 30° C.; read-out: c-Met Enzyme IC50
Method: c-Met In Vitro Kinase Assay [Method] Use Lance@Ultra Ulight™-TK test kits from PerKinElmer to evaluate the inhibition of c-Met kinase by the compounds [Instrument] ENVISION plate reader of PerKinElmer […] Then ATP (final concentration 2.5 uM) and kinase substrate (final concentration 50 nM) are added. […] After 1 hr, the plate is read at 615 nm and 665 nm. The ratio of […] at 665 nm and 615 nm is calculated and used for the data analysis as follows. This assay has a Minimum Significant Ratio (MSA) of 2-3. [Samples] All exampled compounds and Crizotinib as the positive control [Data Analysis] Background—the ratio of 665 nm/615 nm (no enzyme):0.003285 • Max—the ratio of 665 nm/615 nm (no test compound):0.075356 [formula] [Software] Use CBIS data analysis software to calculate IC50 values

[2] = molecular target: c-Met protein in S114 cells (Homo sapiens (Human), UniProt P08581); test: S114 cell-based ELISA, phosphorylation of c-Met protein; conditions: 30 min compound incubation, phospho-c-Met ELISA
c-Met protein in S114 cells, sequence (P08581 25-1390): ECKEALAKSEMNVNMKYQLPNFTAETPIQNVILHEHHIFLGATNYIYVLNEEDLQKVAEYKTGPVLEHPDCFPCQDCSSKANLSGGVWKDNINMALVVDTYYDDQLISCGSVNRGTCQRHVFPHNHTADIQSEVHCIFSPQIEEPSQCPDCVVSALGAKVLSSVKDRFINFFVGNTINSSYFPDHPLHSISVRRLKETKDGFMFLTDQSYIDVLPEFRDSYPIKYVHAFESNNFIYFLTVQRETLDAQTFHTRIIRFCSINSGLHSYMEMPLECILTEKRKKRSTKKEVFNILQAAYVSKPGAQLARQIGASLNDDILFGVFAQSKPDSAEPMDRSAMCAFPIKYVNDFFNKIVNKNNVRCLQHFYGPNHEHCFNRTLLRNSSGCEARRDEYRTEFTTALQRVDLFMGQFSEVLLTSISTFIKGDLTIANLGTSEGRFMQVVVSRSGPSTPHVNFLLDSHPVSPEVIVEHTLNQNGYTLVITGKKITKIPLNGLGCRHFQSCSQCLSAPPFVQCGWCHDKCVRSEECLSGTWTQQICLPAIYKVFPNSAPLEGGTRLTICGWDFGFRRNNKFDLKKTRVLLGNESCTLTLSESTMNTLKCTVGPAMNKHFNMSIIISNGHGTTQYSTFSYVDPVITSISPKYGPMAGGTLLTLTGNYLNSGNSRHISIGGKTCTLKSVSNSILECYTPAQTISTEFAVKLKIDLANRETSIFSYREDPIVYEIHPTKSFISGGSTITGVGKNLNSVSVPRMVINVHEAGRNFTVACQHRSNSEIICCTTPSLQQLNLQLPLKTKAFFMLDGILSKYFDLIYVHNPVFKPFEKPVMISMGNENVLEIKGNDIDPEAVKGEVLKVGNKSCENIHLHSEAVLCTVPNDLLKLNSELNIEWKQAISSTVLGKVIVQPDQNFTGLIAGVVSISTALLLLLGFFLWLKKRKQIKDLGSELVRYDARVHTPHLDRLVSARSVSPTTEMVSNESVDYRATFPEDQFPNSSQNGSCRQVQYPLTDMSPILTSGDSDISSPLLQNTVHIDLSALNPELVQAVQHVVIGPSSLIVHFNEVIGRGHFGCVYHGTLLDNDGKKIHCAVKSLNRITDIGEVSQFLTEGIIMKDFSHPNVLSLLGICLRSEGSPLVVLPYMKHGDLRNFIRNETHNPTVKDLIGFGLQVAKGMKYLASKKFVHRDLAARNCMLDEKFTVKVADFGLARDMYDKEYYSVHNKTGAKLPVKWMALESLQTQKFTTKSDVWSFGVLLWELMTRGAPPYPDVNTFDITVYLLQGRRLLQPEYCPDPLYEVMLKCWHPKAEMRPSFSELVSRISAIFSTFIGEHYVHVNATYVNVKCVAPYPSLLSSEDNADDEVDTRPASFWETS
Method: Cell-Based ELISA [Method] Use ELISA to measure the phosphorylation of c-Met protein in […] cells [Instrument] ENVISION plate reader of PerKinElmer […] [Procedure] […] cells are cultured in DMEM medium (containing 10% FBS). When cells reach 80% confluency, they are collected by trypsinization and centrifugation at 800 rpm for 5 min. The cells are re-suspended in DMEM and adjusted to a density of 500,000 cells/mL. A 96-well plate is pretreated with a solution of Firbronectin in PBS (5 μg/mL) at 100 μL per well for 2 hr. The cell suspension is split into the 96-well culture plate at 100 uL per well and incubated (37° C., 5% CO2) overnight. The capture antibody is diluted with 1/2 Tris-ammonium bicarbonate buffer (1:1000) and transferred into a 96-well absorption plate (70 μL per well) at 4° C. overnight. The solution is discarded and the plate is washed with blocking buffer, followed by adding blocking buffer (150 μL per well), and kept at room temperature for 1 hr. The medium in the 96-well culture plate is discarded and the plate is washed with DMEM (without FBS). Then 80 μL of DMEM (without FBS) and 20 μL of test compound solution at various concentrations in DMEM (without FBS) are added. The culture plate is kept in a culture incubator for 30 min (37° C., 5% CO2). The cell culture medium is discarded and the culture plate is washed with PBS, followed by adding lysis buffer (50 μL per well) and incubated at 4° C. for 20 min. The solution in the absorption plate is discarded and the plate is washed with binding buffer. To each well of the absorption plate is added binding buffer (50 μL) and lysate (40 μL) from the above culture plate; then the plate is incubated at room temperature for 2 hours. The culture medium is discarded and the plate is washed twice with binding buffer, followed by adding a solution of 1st antibody (diluted with binding buffer 1:1000, 100 μL per well) and incubated at 37° C. for 1 hr. The solution is discarded and the plate is washed twice with binding buffer. Then a solution of 2nd antibody is added (100 μL per well) and incubated at 37° C. for another hour. The medium is discarded and the plate is washed twice with binding buffer and once with PBS. To each well, 100 μL of A.B.T.S solution is added and incubated at 37° C. for 30 min. Then OD405 is analyzed on an ENVISION plate reader. This assay has a Minimum Significant Ratio (MSA) of 2-3. [Samples] All exemplified compounds and Crizotinib as the positive control [Data Analysis] Background (no cell lysate): 0.084 • Max (no test compound): 0.517 [formula] [Software] Use CBIS data analysis software to calculate IC50 values

c-Met kinase (1038-1346AA), sequence (P08581 1038-1346): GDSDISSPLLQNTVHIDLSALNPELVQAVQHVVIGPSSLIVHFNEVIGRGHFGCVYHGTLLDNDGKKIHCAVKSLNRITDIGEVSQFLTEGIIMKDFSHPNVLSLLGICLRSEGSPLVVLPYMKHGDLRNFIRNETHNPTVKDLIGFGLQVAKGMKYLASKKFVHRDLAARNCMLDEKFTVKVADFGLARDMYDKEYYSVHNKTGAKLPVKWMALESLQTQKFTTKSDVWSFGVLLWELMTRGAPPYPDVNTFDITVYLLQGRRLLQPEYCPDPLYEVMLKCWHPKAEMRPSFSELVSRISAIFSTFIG

Compound | IC50 [1] | IC50 [2]
CNC(=O)c1ccc(-c2ccc3nnc(C(F)(F)c4ccc5nn(C)cc5c4F)n3n2)cc1F [Example 1, 4-(3-(Difluoro(4-fluoro-2-methyl-2H-indazol-5-yl)methyl)-[1,2,4]triazolo[4,3-b]pyridazin-6-yl)-2-fluoro-N-methylbenzamide] | 48.8 nM | 3.9 nM
CN(C)C(=O)c1ccc(-c2ccc3nnc(C(F)(F)c4ccc5nn(C)cc5c4F)n3n2)cc1F [Example 2] | 148 nM | 103 nM
CCNC(=O)c1ccc(-c2ccc3nnc(C(F)(F)c4ccc5nn(C)cc5c4F)n3n2)cc1F [Example 3] | 69.3 nM | 71.5 nM
CC(C)NC(=O)c1ccc(-c2ccc3nnc(C(F)(F)c4ccc5nn(C)cc5c4F)n3n2)cc1F [Example 4] | 83.9 nM | 2.6 nM
Cn1cc2c(F)c(C(F)(F)c3nnc4ccc(-c5ccc(C(=O)NC6CC6)c(F)c5)nn34)ccc2n1 [Example 5] | 45.4 nM | 23.2 nM
CNC(=O)c1c(F)cc(-c2ccc3nnc(C(F)(F)c4ccc5nn(C)cc5c4F)n3n2)cc1F [Example 6] | 36.5 nM | 9.5 nM
Cn1cc2c(F)c(C(F)(F)c3nnc4ccc(-c5ccc(NC(=O)C6CC6)c(F)c5)nn34)ccc2n1 [Example 7] | 76.4 nM | 49.6 nM
CNC(=O)c1ccc(-c2ccc3nnc(C(F)(F)c4ccc5nn(C)cc5c4F)n3n2)cn1 [Example 8] |  | 122 nM
Cc1cncc(-c2ccc3nnc(C(F)(F)c4ccc5nn(C)cc5c4F)n3n2)c1 [Example 9] |  | 85 nM
Cn1cc2c(F)c(C(F)(F)c3nnc4ccc(-c5cncc(F)c5)nn34)ccc2n1 [Example 10] |  | 142 nM
Cn1cc2c(F)c(C(F)(F)c3nnc4ccc(-c5cncc(Cl)c5)nn34)ccc2n1 [Example 11] |  | 42 nM
Cn1cc2c(F)c(C(F)(F)c3nnc4ccc(-c5ccc(C#N)nc5)nn34)ccc2n1 [Example 13] | 182 nM | 190 nM
CC(C)n1cc(-c2ccc3nnc(C(F)(F)c4ccc5nn(C)cc5c4F)n3n2)cn1 [Example 14] | 102 nM | 22.5 nM
COCCn1cc(-c2ccc3nnc(C(F)(F)c4ccc5nn(C)cc5c4F)n3n2)cn1 [Example 15] | 380 nM | 383 nM
Cn1cc2c(F)c(C(F)(F)c3nnc4ccc(-c5cnn(CC6COCO6)c5)nn34)ccc2n1 (centres unmarked) [Example 16] | 247 nM | 179 nM
Cn1cc2c(F)c(C(F)(F)c3nnc4ccc(-c5ccc(S(N)(=O)=O)c(F)c5)nn34)ccc2n1 [Example 17] | 77.6 nM | 55.6 nM
CNC(=O)c1ccc(-c2ccc3nnc(C(F)(F)c4cc5cn(C)nc5cc4F)n3n2)c(F)c1 [Example 18] | 90.8 nM | 206 nM
CNC(=O)c1ccc(-c2ccc3nnc(C(F)(F)c4cc5cn(C)nc5cc4F)n3n2)cc1F [Example 19] | 25.6 nM | 5.7 nM
CC(C)NC(=O)c1ccc(-c2ccc3nnc(C(F)(F)c4cc5cn(C)nc5cc4F)n3n2)c(F)c1 [Example 20] | 137 nM | 158 nM
CN(C)C(=O)c1ccc(-c2ccc3nnc(C(F)(F)c4cc5cn(C)nc5cc4F)n3n2)cc1F [Example 21] | 180 nM | 262 nM
CCNC(=O)c1ccc(-c2ccc3nnc(C(F)(F)c4cc5cn(C)nc5cc4F)n3n2)cc1F [Example 22] | 20.7 nM | 15.5 nM
CC(C)NC(=O)c1ccc(-c2ccc3nnc(C(F)(F)c4cc5cn(C)nc5cc4F)n3n2)cc1F [Example 23] | 41.6 nM | 1.1 nM
Cn1cc2cc(C(F)(F)c3nnc4ccc(-c5ccc(C(=O)NC6CC6)c(F)c5)nn34)c(F)cc2n1 [Example 24] | 43.4 nM | 14.9 nM
O=C(NCCN1CCOCC1)n1cc2cc(C(F)(F)c3nnc4ccc(-c5cnn(C6CC6)c5)nn34)c(F)cc2n1 [Example 51] | 4130 nM | 
Nc1nc2ccc(C(F)(F)c3nnc4ccc(-c5cnn(C6CC6)c5)nn34)cc2[nH]1 [Example 52] | 568 nM | 
